Measured values from article PMC12598616, “Design and optimization of caspase-1-responsive fluorescent probes for pyroptosis imaging and anti-pyroptosis drug screening” (Chemical Science, 2025).

Experiments:
[1] = test system: activated Cas-1 in primary peritoneal macrophages; experiment: High-content screening / fluorescence imaging for caspase-1 modulators in primary peritoneal macrophages; format: cell-based, mouse; conditions: LPS then Nig 10 μM 2 h; FPy1 5 μM
From the text: The efficient and rapid discovery of Cas-1 modulators is of significant importance considering the therapeutic potential of Cas-1 in various diseases.[39,40] Therefore, we employed FPy1 to construct a high-content screening system aimed at identifying Cas-1 modulators. The level of activated Cas-1 in cells is influenced by multiple factors. To reduce the impact of factors that affect Cas-1 activation in cells, we utilized the NLRP3 inflammasome-mediated Cas-1 activation model, administering the drug during the second stage where the zymogen was converted into activated Cas-1. MCC950, a selective NLRP3 inflammasome inhibitor that could suppress Cas-1 activation, was selected as the positive drug.[41] […] To validate the efficacy of the Cas-1 modulator screening system (Fig. 6a), we first observed the fluorescence images of PMs stained with FPy1 (5 μM) in the control group, model group, and positive drug group. […] Subsequently, the impact of 25 natural products (10 μM) on activated Cas-1 were studied using high-content analysis (Fig. S20). […] To determine whether deoxyshikonin directly binds to Cas-1 and inhibits its activity, we conducted fluorescence detection following co-incubation of deoxyshikonin, FPy1 and Cas-1. […]
(§1) Harvested rat discs were fixed in 4 % buffered paraformaldehyde for 24 hours, decalcified in 10 % ethylenediaminetetraacetic acid (EDTA, Solarbio, E8030) solution for 1 month, embedded in paraffin, and sectioned at a thickness of 5 μm. […] Stained sections were evaluated by three independent raters, blinded to the research protocol, and measurements were averaged for statistical analysis. […]
In vivo fluorescence imaging of intervertebral disc degeneration
Twelve rats were modeled with needle puncture-induced intervertebral disc degeneration at the Co5/6, Co6/7 and Co 7/8 levels. […] In vivo fluorescence images were acquired using an in vivo Imaging System (PerkinElmer). […]
In vivo fluorescence imaging of osteoarthritis […]

[2] = test system: osteoarthritis mouse model (ACL transection); experiment: In vivo fluorescence imaging of osteoarthritis; parameters: species or system C57BL/6J mouse; conditions: injected into joint cavity; 0, 7, 14, 21 days post-surgery
Method: The decline in chondrocyte function plays a crucial role in the pathogenesis of OA. Inflammasome-mediated chondrocyte pyroptosis has been closely associated with matrix degradation and cartilage degeneration in OA.[38] To model OA in vitro, primary chondrocytes were stimulated with H2O2 (2 mM) for different durations, followed by staining with FPy1 (5 μM) and fluorescence imaging to monitor the progression of pyroptosis under oxidative stress. […] To better mimic the in vivo pathological features of OA, primary chondrocytes were also cultured as three-dimensional spheroids and stimulated with H2O2. […] Furthermore, we evaluated the capability of FPy1 to monitor pyroptosis progression at different stages of OA in a mouse model. […] The pathological manifestations in the corresponding tissues became more pronounced with longer modeling periods, consistent with the fluorescence imaging results obtained using FPy1. […]
as §1
In vivo fluorescence imaging of intervertebral disc degeneration […]

–FLTDG– [FPy1, RhoB donor, hNR quencher]
fluorescence of FPy1-stained macrophages, model vs control group [1]: significant fluorescence enhancement compared to the control group
in vivo fluorescence signals in knee joints [2]: gradually increasing as the modeling duration was extended
